Assay results from patent publication US20070014803A1, “METHODS AND COMPOSITIONS FOR DIAGNOSIS AND TREATMENT OF VIRAL AND BACTERIAL INFECTIONS” (Arbor Vita Corporation, priority 2005, published 2007).
Where two headings read alike, the source gives them in different places. Where no end group is shown, it is not given here.

Assays:
Experiment in all cases: PRISM Matrix ELISA modified G assay (pre-incubation), peptide titration
PDZ protein Rim2 = target: T1, PDZ protein Rim2 (Homo sapiens, UniProt Q9UQ26); conditions: read-out: EC50 of binding to the PDZ protein Rim2
T1 construct: made in house
T1 sequence (Q9UQ26 632-757): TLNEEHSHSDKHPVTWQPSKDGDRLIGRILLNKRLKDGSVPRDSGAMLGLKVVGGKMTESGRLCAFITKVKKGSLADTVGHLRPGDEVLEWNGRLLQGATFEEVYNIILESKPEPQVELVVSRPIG
Procedure: (§1) Two different types of ELISA assays were used to test the HIV Peptides 1904 and 1905. The primary MATRIX screen against all PDZ proteins in the library was performed under pre-incubation conditions, which are a modification of the G assay. A pre-incubation assay incubates the peptide with the HRP-streptavidin before addition of the mixture to the PDZ-coated plate. The subsequent titrations of the peptide against the PDZs of interest were performed under normal ELISA G assay conditions. In normal conditions the peptide is incubated on the PDZ coated plate before the later addition of the HRP-streptavidin. The reagents and supplies for both assays are listed below, as well as the two different protocols.
(§2) The PRISM Matrix ELISA modified G Assay was also used for pre-incubation and for the MATRIX assay. The protocol was as follows.
(§3) 1. Coat plate with 100 μl of 5 μg/ml anti-GST, O/N @ 4° C.
(§4) 2. Dump contents out of plate and tap dry on paper towels
(§5) 3. Block with 200 μl Assay Buffer for 1 to 2 hrs at room temperature
(§6) 4. Prepare proteins in Assay Buffer
(§7) 5. Wash plate 3× with cold PBS*
(§8) 6. Add proteins at 50 μl per well, incubate 1 to 2 hrs at 4° C.
(§9) 7. Prepare peptides in Assay Buffer:
(§10) • Prepare peptides in half of volume need with double of desired concentration. • Dilute HRP (1:1000) in another half of volume (same volume with peptide) then mix with peptides. • Incubate the peptide-HRP mixtures for 20 minutes at RT 8. Wash plate 3× with cold PBS* 9. Add peptide-HRP mixtures at 50 μl per well (write time on plate) 10. Incubate at RT after last peptide has been added for exactly 30 minutes 11. Turn on plate reader and prepare files 12. Promptly wash plate 5× with room temperature PBS 13. Add 100 μl/well TMB substrate (write time on plate) 14. Incubate in dark at room temp for a maximum of 30 minutes 15. Stop reaction with 100 μl of 0.18M H2SO4, 30 min. after adding TMB 16. Take last reading at 450 nm soon after stopping reaction

PDZ protein NSP = target: T2, PDZ protein NSP (Homo sapiens, UniProt Q92743); conditions: read-out: EC50 of binding to the PDZ protein NSP
T2 construct: made in house
Procedure: as §1, §2, §3, §4, §5, §6, §7, §8, §9, §10

[1] = target: T3, PDZ protein ZO-1 d2 (domain 2) (Homo sapiens, UniProt Q07157, DEL264-264); conditions: read-out: EC50 of binding to the PDZ protein ZO-1 d2
T3 construct: made in house
T3 sequence (Q07157 with tags, fused parts or gaps DEL264-264): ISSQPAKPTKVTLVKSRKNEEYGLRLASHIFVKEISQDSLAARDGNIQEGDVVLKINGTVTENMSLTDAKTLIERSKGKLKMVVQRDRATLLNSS
Procedure: as §1, §2, §3, §4, §5, §6, §7, §8, §9, §10

[2] = modified G assay titration (FIG. 2C, FIG. 3C)
[3] = modified G assay titration (FIG. 2D, FIG. 3D)
[4] = modified G assay titration (FIG. 2B, FIG. 3B)

T2 sequence (Q92743 359-473): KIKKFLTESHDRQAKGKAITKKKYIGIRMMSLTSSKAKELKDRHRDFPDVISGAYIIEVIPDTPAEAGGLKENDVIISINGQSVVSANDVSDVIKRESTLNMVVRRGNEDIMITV

Substance	EC50 (PDZ protein Rim2; [2]) [nM]	EC50 (PDZ protein Rim2; modified G assay titration, third experiment (FIG. 5, printed as FIG. 3C)) [nM]	EC50 (PDZ protein NSP; [3]) [nM]	EC50 (PDZ protein NSP; modified G assay titration, third experiment (FIG. 5, printed as FIG. 3D)) [nM]	EC50 [1, 4] [nM]	EC50 ([1]; modified G assay titration, third experiment (FIG. 5B)) [nM]
YGRKKRRQRRRRQGFERALL-OH [Peptide 1905]	14	68	8	30	2.8	36
YGRKKRRQRRRRQGLERILL-OH [Peptide 1904]	30		14.9		25	
